Results as given in US20100113506A1, “COMPOSITION FOR PREVENTING OR TREATING THROMBUS- OR EMBOLUS- ASSOCIATED DISEASE” (priority 2007, published 2010).

What was measured:
[1] = tested on: platelet aggregation induced by ADP; test: ADP-induced platelet aggregation in PRP of orally dosed rabbits (ex vivo); design: species or system Japanese white rabbits; conditions: ADP 3 μM, clopidogrel 20 mg/kg single oral dose; for Aggregation suppressibility: EPA-E 300 mg/kg oral once a day 4 weeks, blood 2 h after clopidogrel; for Effect on maximum aggregation rate: vs control group, EPA-E 300 mg/kg oral 4 weeks
Protocol: (§1) After the preliminary keeping, the rabbits were randomly divided into four groups, namely, control group, EPA-E group, clopidogrel group, and combination group. To the EPA-E group and the combination group, EPA-E was orally administered once a day for four weeks at a dose of 300 mg/kg. To the control group and the clopidogrel group, a 5% aqueous solution of gum arabic was orally administered instead of EPA-E. After the last EPA-E or gum arabic administration, the rabbits were fasted overnight, then clopidogrel was orally administered to the clopidogrel group and the combination group at a single dose of 20 mg/kg. To the control group and the EPA-E group, the 5% aqueous solution of gum arabic was orally administered instead of clopidogrel. Two hours after the clopidogrel administration, blood was sampled using a syringe containing citric acid in an amount of a tenth of the syringe volume, and the white blood cell count, red blood cell count, hemoglobin, hematocrit, and platelet count were measured on an automated hematology analyzer (type F-820 from Sysmex Corporation). The blood was centrifuged (at 150×g and at room temperature for 15 minutes) immediately after the above measurement to obtain platelet-rich plasma (PRP). The PRP was further centrifuged (at 1,500×g and at room temperature for 15 minutes) to collect platelet-poor plasma (PPP), and the platelet count was regulated with the PRP and PPP so that it might be […] (final level). The PRP was kept at 37° C. for four minutes, then an ADP (adenosine 5′-diphosphate) solution with a final concentration of 3 μM (MC Medical, Inc.) or a collagen solution with a final concentration of 6 μg/mL (Nycomed) was added thereto as an aggregation inducer so as to observe platelet aggregation using a platelet aggregation analyzer (MCM HEMA TRACER 313M from MC Medical, Inc.). The platelet aggregation activity was evaluated on the basis of maximum aggregation rate, and the suppressibility of platelet aggregation was calculated according to the following equation.
(§2) Aggregation suppressibility (%)={[maximum aggregation rate (mean) in control group]−[maximum aggregation rate (mean) in experimental group]}/[maximum aggregation rate (mean) in control group]×100.
(§3) The measurement results set forth for each group are each the mean of the values obtained in 8 or 9 cases plus/minus a standard error. The results were compared between the groups using the Tukey-Kramer method for multiple comparison testing, and the statistical significance was confirmed below a set level of 5%.

[2] = tested on: platelet aggregation induced by collagen; test: Collagen-induced platelet aggregation in PRP of orally dosed rabbits (ex vivo); design: species or system Japanese white rabbits; conditions: collagen 6 μg/mL, clopidogrel 20 mg/kg single oral dose; for Effect on maximum aggregation rate: EPA-E 300 mg/kg oral 4 weeks; for Aggregation suppressibility: EPA-E 300 mg/kg oral once a day 4 weeks, blood 2 h after clopidogrel
Protocol: as §1, §2, §3

[3] = Prothrombin time (PT) in platelet-poor plasma; assay type: in vivo, Japanese white rabbits; conditions: vs control group; EPA-E 300 mg/kg oral 4 weeks, clopidogrel 20 mg/kg single oral dose
Protocol: (§4) After the preliminary keeping, the rabbits were randomly divided into four groups, namely, control group, EPA-E group, clopidogrel group, and combination group. To the EPA-E group and the combination group, EPA-E was orally administered once a day for four weeks at a dose of 300 mg/kg. To the control group and the clopidogrel group, a 5% aqueous solution of gum arabic was orally administered instead of EPA-E. After the last EPA-E or gum arabic administration, the rabbits were fasted overnight, then clopidogrel was orally administered to the clopidogrel group and the combination group at a single dose of 20 mg/kg. […] Two hours after the clopidogrel administration, blood was sampled using a syringe containing citric acid in an amount of a tenth of the syringe volume, and the white blood cell count, red blood cell count, hemoglobin, hematocrit, and platelet count were measured on an automated hematology analyzer (type F-820 from Sysmex Corporation). […] The platelet aggregation activity was evaluated on the basis of maximum aggregation rate, and the suppressibility of platelet aggregation was calculated according to the following equation. Platelet-poor plasma (PPP) was measured in terms of prothrombin time (PT) and activated partial thromboplastin time (APTT) as coagulation-related parameters. […]

[4] = Activated partial thromboplastin time (APTT) in platelet-poor plasma; assay type: in vivo, Japanese white rabbits; conditions: vs control group; EPA-E 300 mg/kg oral 4 weeks, clopidogrel 20 mg/kg single oral dose
Protocol: as §4

[5] = Bleeding time, ear puncture wound (method of Elg et al.); assay type: in vivo, Japanese white rabbits; conditions: rabbit ear puncture; EPA-E 300 mg/kg oral 4 weeks, clopidogrel 20 mg/kg single oral dose
[6] = Hematological parameters on automated hematology analyzer; assay type: in vivo, Japanese white rabbits; conditions: for Hematocrit / Hemoglobin / Platelet count / Red blood cell count / White blood cell count: mean ± standard error, blood 2 h after clopidogrel, EPA-E 300 mg/kg 4 weeks, clopidogrel 20 mg/kg; for Change of white blood cell count, red blood cell count, hemoglobin, hematocrit and platelet count: vs control group
Protocol: After the preliminary keeping, the rabbits were randomly divided into four groups, namely, control group, EPA-E group, clopidogrel group, and combination group. To the EPA-E group and the combination group, EPA-E was orally administered once a day for four weeks at a dose of 300 mg/kg. To the control group and the clopidogrel group, a 5% aqueous solution of gum arabic was orally administered instead of EPA-E. After the last EPA-E or gum arabic administration, the rabbits were fasted overnight, then clopidogrel was orally administered to the clopidogrel group and the combination group at a single dose of 20 mg/kg. To the control group and the EPA-E group, the 5% aqueous solution of gum arabic was orally administered instead of clopidogrel. Two hours after the clopidogrel administration, blood was sampled using a syringe containing citric acid in an amount of a tenth of the syringe volume, and the white blood cell count, red blood cell count, hemoglobin, hematocrit, and platelet count were measured on an automated hematology analyzer (type F-820 from Sysmex Corporation). The blood was centrifuged (at 150×g and at room temperature for 15 minutes) immediately after the above measurement to obtain platelet-rich plasma (PRP). […] The platelet aggregation activity was evaluated on the basis of maximum aggregation rate, and the suppressibility of platelet aggregation was calculated according to the following equation. The measurement results set forth for each group are each the mean of the values obtained in 8 or 9 cases plus/minus a standard error. The results were compared between the groups using the Tukey-Kramer method for multiple comparison testing, and the statistical significance was confirmed below a set level of 5%.

SMILES: COC(=O)[C@H](c1ccccc1Cl)N1CCc2sccc2C1 [clopidogrel, (+)-(s)-methyl 2-(2-chlorophenyl)-2-(4,5,6,7-tetrahydrothieno[3,2-c]pyridin-5-yl) acetate monosulfate]
- Aggregation suppressibility [1]: 29%
- Effect on maximum aggregation rate [1]: reduced the maximum aggregation rate
- Effect on maximum aggregation rate [2]: no differences were seen which were statistically significant
- Aggregation suppressibility [2]: 7%
- PT (prothrombin time) change [3]: neither PT (prothrombin time) nor APTT (activated partial thromboplastin time) had a statistically significant change
- APTT (activated partial thromboplastin time) change [4]: neither PT (prothrombin time) nor APTT (activated partial thromboplastin time) had a statistically significant change
- Effect on bleeding time [5]: prolonged the bleeding time significantly in a statistical sense
- Hematocrit [6]: 39.3 ± 1.2%
- Hemoglobin [6]: 13.8 ± 0.4 g/dL
- Platelet count [6]: 38.0 ± 2.3 ×10^4/μL
- Red blood cell count [6]: 584 ± 17 ×10^4/μL
- White blood cell count [6]: 58.0 ± 4.8 ×10^2/μL
- Change of white blood cell count, red blood cell count, hemoglobin, hematocrit and platelet count [6]: had not a statistically significant change

SMILES: CC/C=C\C/C=C\C/C=C\C/C=C\C/C=C\CCCC(=O)OCC [EPA-E, ethyl icosapentate]
- Aggregation suppressibility [1]: 0%
- Effect on maximum aggregation rate [1]: had no influence on the maximum aggregation rate
- Effect on maximum aggregation rate [2]: reduced the maximum aggregation rate significantly in a statistical sense
- Aggregation suppressibility [2]: 29%
- PT (prothrombin time) change [3]: neither PT (prothrombin time) nor APTT (activated partial thromboplastin time) had a statistically significant change
- APTT (activated partial thromboplastin time) change [4]: neither PT (prothrombin time) nor APTT (activated partial thromboplastin time) had a statistically significant change
- Effect on bleeding time [5]: had no influence on the bleeding time
- Hematocrit [6]: 37.3 ± 0.6%
- Hemoglobin [6]: 13.1 ± 0.2 g/dL
- Platelet count [6]: 30.4 ± 1.2 ×10^4/μL
- Red blood cell count [6]: 563 ± 10 ×10^4/μL
- White blood cell count [6]: 58.8 ± 5.2 ×10^2/μL
- Change of white blood cell count, red blood cell count, hemoglobin, hematocrit and platelet count [6]: had not a statistically significant change
